# Test results from patent publication US20030170829A1 (priority 2001, published 2003).
# “Also recorded” adds a separate entry of the source. Where two headings read alike, the source gives them in different places.
# How the values were obtained:
# AFDH [1] = test system: AFDH
# AFDH [2] = format: biochemical, Anthracobia melaloma; details: for Relative activity (%): None = 100
# AFDH [3] = test system: AFDH; remark: listed apart in the source
# [4] = substrate 100 μl, 12.79 μmol/ml
# [5] = substrate 130 μl, 16.63 μmol/ml
# [6] = substrate 160 μl, 20.46 μmol/ml
# [7] = substrate 180 μl, 23.02 μmol/ml
# [8] = substrate 200 μl, 25.58 μmol/ml
# [9] = substrate 230 μl, 29.42 μmol/ml
# [10] = substrate 260 μl, 33.25 μmol/ml
# [11] = substrate 300 μl, 38.37 μmol/ml
# [12] = substrate 400 μl, 51.16 μmol/ml
# [13] = substrate 450 μl, 57.56 μmol/ml
# [14] = substrate 480 μl, 61.39 μmol/ml
# [15] = substrate 100 μl, 24.75 μmol/ml
# [16] = substrate 120 μl, 29.69 μmol/ml
# [17] = substrate 150 μl, 37.12 μmol/ml
# [18] = substrate 170 μl, 42.07 μmol/ml
# [19] = substrate 200 μl, 49.49 μmol/ml
# [20] = substrate 250 μl, 61.86 μmol/ml
# [21] = substrate 300 μl, 74.24 μmol/ml
smiles,measurement,setting,value
"O=C1CO[C@H](CO)[C@@H](O)[C@@H]1O [AF, 1,5-anhydro-D-fructose]",Km,"AFDH [1]; read-out: apparent Km (concentration that yielded half of the maximum activity), substrate AF, pH 6.7, 22 °C",12.6 mM
same,Activity units,"AFDH [1]; substrate 5 μl, 0.64 μmol/ml",39.33 units
same,OD263,"AFDH [1]; substrate 5 μl, 0.64 μmol/ml",0.059
same,Activity units,"AFDH [1]; substrate 10 μl, 1.28 μmol/ml",62.67 units
same,OD263,"AFDH [1]; substrate 10 μl, 1.28 μmol/ml",0.094
same,Activity units,"AFDH [1]; substrate 20 μl, 2.56 μmol/ml",101.33 units
same,OD263,"AFDH [1]; substrate 20 μl, 2.56 μmol/ml",0.152
same,Activity units,"AFDH [1]; substrate 30 μl, 3.84 μmol/ml",182.67 units
same,OD263,"AFDH [1]; substrate 30 μl, 3.84 μmol/ml",0.274
same,Activity units,"AFDH [1]; substrate 40 μl, 5.12 μmol/ml",210.67 units
same,OD263,"AFDH [1]; substrate 40 μl, 5.12 μmol/ml",0.316
same,Activity units,"AFDH [1]; substrate 50 μl, 6.40 μmol/ml",218.67 units
same,OD263,"AFDH [1]; substrate 50 μl, 6.40 μmol/ml",0.328
same,Activity units,"AFDH [1]; substrate 60 μl, 0.46 μmol/ml",256.00 units
same,OD263,"AFDH [1]; substrate 60 μl, 0.46 μmol/ml",0.384
same,Activity units,"AFDH [1]; substrate 70 μl, 8.95 μmol/ml",327.33 units
same,OD263,"AFDH [1]; substrate 70 μl, 8.95 μmol/ml",0.491
same,Activity units,AFDH [1]; [4],412.00 units
same,OD263,AFDH [1]; [4],0.618
same,Activity units,AFDH [1]; [5],456.67 units
same,OD263,AFDH [1]; [5],0.685
same,Activity units,AFDH [1]; [6],511.33 units
same,OD263,AFDH [1]; [6],0.767
same,Activity units,AFDH [1]; [7],549.33 units
same,OD263,AFDH [1]; [7],0.824
same,Activity units,AFDH [1]; [8],561.33 units
same,OD263,AFDH [1]; [8],0.842
same,Activity units,AFDH [1]; [9],594.67 units
same,OD263,AFDH [1]; [9],0.892
same,Activity units,AFDH [1]; [10],609.33 units
same,OD263,AFDH [1]; [10],0.914
same,Activity units,AFDH [1]; [11],646.67 units
same,OD263,AFDH [1]; [11],0.97
same,Activity units,AFDH [1]; [12],738.67 units
same,OD263,AFDH [1]; [12],1.108
same,Activity units,AFDH [1]; [13],767.33 units
same,OD263,AFDH [1]; [13],1.151
same,Activity units,AFDH [1]; [14],772.67 units
same,OD263,AFDH [1]; [14],1.159
same,Vmax,"AFDH [1]; substrate AF, pH 6.7, 22 °C",769 units
[Ca+2].[Cl-].[Cl-] [CaCl2],concentration found to increase the activity with a factor of two,AFDH [2],10 mM
same,effect on AFDH activity,AFDH [2],increased
same,Activity units,AFDH [2]; effector 5 mM,1245.0 units
same,OD263,AFDH [2]; effector 5 mM,0.747
same,Activity units,AFDH [2]; effector 10 mM,1442.7 units
same,OD263,AFDH [2]; effector 10 mM,0.865
same,Activity units,AFDH [2]; effector 15 mM,1455.0 units
same,OD263,AFDH [2]; effector 15 mM,0.873
same,Activity units,AFDH [2]; effector 20 mM,1531.7 units
same,OD263,AFDH [2]; effector 20 mM,0.919
same,Activity units,AFDH [2]; effector 25 mM,1561.7 units
same,OD263,AFDH [2]; effector 25 mM,0.937
same,Activity units,AFDH [2]; effector 30 mM,1601.7 units
same,OD263,AFDH [2]; effector 30 mM,0.961
same,Activity units,AFDH [2]; effector 40 mM,1473.3 units
same,OD263,AFDH [2]; effector 40 mM,0.884
same,Activity units,AFDH [2]; effector 50 mM,1466.7 units
same,OD263,AFDH [2]; effector 50 mM,0.880
O=CC(=O)[C@@H](O)[C@H](O)[C@H](O)CO [D-glucosone],Km,"AFDH [3]; read-out: apparent Km (concentration that yielded half of the maximum activity), substrate D-glucosone, pH 6.7, 22 °C",27.6 mM
same,Activity units,"AFDH [3]; substrate 5 μl, 1.24 μmol/ml",33.33 units
same,OD265,"AFDH [3]; substrate 5 μl, 1.24 μmol/ml",0.050
same,Activity units,"AFDH [3]; substrate 10 μl, 2.47 μmol/ml",36.00 units
same,OD265,"AFDH [3]; substrate 10 μl, 2.47 μmol/ml",0.054
same,Activity units,"AFDH [3]; substrate 20 μl, 4.95 μmol/ml",57.33 units
same,OD265,"AFDH [3]; substrate 20 μl, 4.95 μmol/ml",0.086
same,Activity units,"AFDH [3]; substrate 30 μl, 7.42 μmol/ml",79.30 units
same,OD265,"AFDH [3]; substrate 30 μl, 7.42 μmol/ml",0.119
same,Activity units,"AFDH [3]; substrate 40 μl, 9.90 μmol/ml",101.33 units
same,OD265,"AFDH [3]; substrate 40 μl, 9.90 μmol/ml",0.152
same,Activity units,"AFDH [3]; substrate 50 μl, 12.37 μmol/ml",114.00 units
same,OD265,"AFDH [3]; substrate 50 μl, 12.37 μmol/ml",0.171
same,Activity units,"AFDH [3]; substrate 60 μl, 14.85 μmol/ml",140.67 units
same,OD265,"AFDH [3]; substrate 60 μl, 14.85 μmol/ml",0.211
same,Activity units,"AFDH [3]; substrate 70 μl, 17.32 μmol/ml",164.67 units
same,OD265,"AFDH [3]; substrate 70 μl, 17.32 μmol/ml",0.247
same,Activity units,"AFDH [3]; substrate 80 μl, 19.80 μmol/ml",180.67 units
same,OD265,"AFDH [3]; substrate 80 μl, 19.80 μmol/ml",0.271
same,Activity units,"AFDH [3]; substrate 90 μl, 22.27 μmol/ml",215.30 units
same,OD265,"AFDH [3]; substrate 90 μl, 22.27 μmol/ml",0.323
same,Activity units,AFDH [3]; [15],230.67 units
same,OD265,AFDH [3]; [15],0.346
same,Activity units,AFDH [3]; [16],262.67 units
same,OD265,AFDH [3]; [16],0.379
same,Activity units,AFDH [3]; [17],310.20 units
same,OD265,AFDH [3]; [17],0.394
same,Activity units,AFDH [3]; [18],352.62 units
same,OD265,AFDH [3]; [18],0.529
same,Activity units,AFDH [3]; [19],394.62 units
same,OD265,AFDH [3]; [19],0.592
same,Activity units,AFDH [3]; [20],407.33 units
same,OD265,AFDH [3]; [20],0.611
same,Activity units,AFDH [3]; [21],414.67 units
same,OD265,AFDH [3]; [21],0.622
same,Vmax,"AFDH [3]; substrate D-glucosone, pH 6.7, 22 °C",416 units
O[C@@H](CS)[C@@H](O)CS [DTT],effect on AFDH activity,AFDH [2],inhibited
same,Relative activity (%),AFDH [2]; inhibitor 10 mM,57%
O=C(O)CN(CCN(CC(=O)O)CC(=O)O)CC(=O)O [EDTA],effect on AFDH activity,AFDH [2],inhibited
same,Relative activity (%),AFDH [2]; inhibitor 10 mM,59%
same,Relative activity (%),AFDH [2]; inhibitor 50 mM,16%
[Cl-].[Cl-].[Mg+2] [MgCl2],concentration found to increase the activity with a factor of two,AFDH [2],25 mM
same,effect on AFDH activity,AFDH [2],increased
same,Activity units,AFDH [2]; effector 5 mM,1053.3 units
same,OD263,AFDH [2]; effector 5 mM,0.632
same,Activity units,AFDH [2]; effector 10 mM,1228.3 units
same,OD263,AFDH [2]; effector 10 mM,0.737
same,Activity units,AFDH [2]; effector 15 mM,1255.0 units
same,OD263,AFDH [2]; effector 15 mM,0.753
same,Activity units,AFDH [2]; effector 20 mM,1295.0 units
same,OD263,AFDH [2]; effector 20 mM,0.777
same,Activity units,AFDH [2]; effector 25 mM,1316.7 units
same,OD263,AFDH [2]; effector 25 mM,0.790
same,Activity units,AFDH [2]; effector 30 mM,1291.7 units
same,OD263,AFDH [2]; effector 30 mM,0.775
same,Activity units,AFDH [2]; effector 40 mM,1243.3 units
same,OD263,AFDH [2]; effector 40 mM,0.746
same,Activity units,AFDH [2]; effector 50 mM,1186.7 units
same,OD263,AFDH [2]; effector 50 mM,0.712
[Cl-].[Na+] [NaCl],concentration found to increase the activity with a factor of two,AFDH [2],50 mM
same,Activity units,AFDH [2]; NaCl 0.05 M,1263.3 units
same,OD263,AFDH [2]; NaCl 0.05 M,0.758
same,Activity units,AFDH [2]; NaCl 0.1 M,1348.3 units
same,OD263,AFDH [2]; NaCl 0.1 M,0.809
same,Activity units,AFDH [2]; NaCl 0.15 M,1381.7 units
same,OD263,AFDH [2]; NaCl 0.15 M,0.829
same,Activity units,AFDH [2]; NaCl 0.2 M,1415.0 units
same,OD263,AFDH [2]; NaCl 0.2 M,0.849
same,Activity units,AFDH [2]; NaCl 0.3 M,1453.3 units
same,OD263,AFDH [2]; NaCl 0.3 M,0.872
same,Activity units,AFDH [2]; NaCl 0.4 M,1338.3 units
same,OD263,AFDH [2]; NaCl 0.4 M,0.803
same,Activity units,AFDH [2]; NaCl 0.5 M,1301.7 units
same,OD263,AFDH [2]; NaCl 0.5 M,0.781
same,Activity units,AFDH [2]; NaCl 0.6 M,1286.7 units
same,OD263,AFDH [2]; NaCl 0.6 M,0.772
same,Activity units,AFDH [2]; NaCl 0.7 M,1271.7 units
same,OD263,AFDH [2]; NaCl 0.7 M,0.763
same,Activity units,AFDH [2]; NaCl 0.8 M,1223.3 units
same,OD263,AFDH [2]; NaCl 0.8 M,0.734
same,Activity units,AFDH [2]; NaCl 0.9 M,1141.7 units
same,OD263,AFDH [2]; NaCl 0.9 M,0.685
same,effect on AFDH activity,AFDH [2]; listed as Na^+,increased; also recorded: positive effect
[Cl-].[Cl-].[Zn+2] [ZnCl2],effect on AFDH activity,AFDH [2],inhibited
same,Activity units,AFDH [2]; effector 5 mM,551.7 units
same,OD263,AFDH [2]; effector 5 mM,0.331
same,Activity units,AFDH [2]; effector 10 mM,435.0 units
same,OD263,AFDH [2]; effector 10 mM,0.261
same,Activity units,AFDH [2]; effector 15 mM,315.0 units
same,OD263,AFDH [2]; effector 15 mM,0.189
same,Activity units,AFDH [2]; effector 20 mM,241.7 units
same,OD263,AFDH [2]; effector 20 mM,0.145
same,Activity units,AFDH [2]; effector 25 mM,220.0 units
same,OD263,AFDH [2]; effector 25 mM,0.132
same,Activity units,AFDH [2]; effector 30 mM,201.7 units
same,OD263,AFDH [2]; effector 30 mM,0.121
same,Activity units,AFDH [2]; effector 40 mM,158.3 units
same,OD263,AFDH [2]; effector 40 mM,0.095
same,Activity units,AFDH [2]; effector 50 mM,135.0 units
same,OD263,AFDH [2]; effector 50 mM,0.081
same,Relative activity (%),AFDH [2]; inhibitor 10 mM,52.52%
